Laboratory results taken from patent publication US7312213B2, “Substituted benzo[e][1,4]oxazino[3,2-g]isoindole compounds” (Les Laboratories Servier, priority 2002, dated 2007).
Where a name gives a salt, the structure may show the parent alone.

Experiments:
L1210 murine leukaemia = assay: In vitro cytotoxicity, L1210 murine leukaemia (Microculture Tetrazolium Assay); format: cell-based; settings: Mus musculus; L1210, 48 hours exposure (4 doubling periods); read-out: IC50, concentration of cytotoxic agent that inhibits the proliferation of the treated cells by 50%
Protocol: (§1) L1210 murine leukaemia was used in vitro. The cells are cultured in RPMI 1640 complete culture medium containing 10% foetal calf serum, 2 mM glutamine, 50 units/ml of penicillin, 50 μg/ml of streptomycin and 10 mM Hepes, pH=7.4. The cells are distributed on microplates and are exposed to the cytotoxic compounds for 4 doubling periods, or 48 hours. The number of viable cells is then quantified by a colorimetric assay, the Microculture Tetrazolium Assay (J. Carmichael et al., Cancer Res.; 47, 939-942 (1987)). The results are expressed as the IC50, the concentration of cytotoxic agent that inhibits the proliferation of the treated cells by 50%.

[1] = tested on: A549 non-small-cell lung carcinoma; assay: In vitro cytotoxicity, human solid tumour cell line A549; format: cell-based; settings: 96 h, incubation 4 days
Protocol: as §1
(§2) The compounds of the invention were also tested on human cell lines originating from solid tumours, in accordance with the same test protocol as that described for L1210 murine leukaemia but with incubation periods of 4 days instead of 2 days.

HT-29 colon carcinoma = assay: In vitro cytotoxicity, human solid tumour cell line HT-29; format: cell-based; settings: 96 h, incubation 4 days
Protocol: as §1, §2

[2] = tested on: KB-3-1 epidermoid carcinoma; assay: In vitro cytotoxicity, human solid tumour cell line KB-3-1; format: cell-based; settings: 96 h, incubation 4 days
Protocol: as §1, §2

DU145 prostate carcinoma = assay: In vitro cytotoxicity, human solid tumour cell line DU145; format: cell-based; settings: DU-145, 96 h, incubation 4 days
Protocol: as §1, §2

Row | melting point | SMILES | also measured
1 | – | CN(C)CCn1c(=O)c2c3cc(O)ccc3c3[nH]c4ccccc4oc3c2c1=O [Example 2, 2-[2-(Dimethylamino)ethyl]-5-hydroxybenzo[a]pyrrolo[3,4-c]phenoxazine-1,3-dione hydrochloride] | IC50 (L1210 murine leukaemia): 250 nM; IC50 [1]: 160 nM; IC50 (HT-29 colon carcinoma): 600 nM; IC50 [2]: 260 nM; IC50 (DU145 prostate carcinoma): 270 nM
2 | 216 °C | CN(C)CCn1c(=O)c2c3cc(OCCO)ccc3c3[nH]c4ccccc4oc3c2c1=O [Example 6, 2-[2-(Dimethylamino)ethyl]-5-(2-hydroxyethoxy)benzo-[a]pyrrolo[3,4-c]phenoxazine-1,3-dione] | –
3 | 202 °C | CN(C)CCn1c(=O)c2c3cc(OCCO)ccc3c3c(oc4ccccc4n3C=O)c2c1=O [Example 7, 8-(Formyl)-2-[2-(dimethylamino)ethyl]-5-(2-hydroxyethoxy)-benzo[a]pyrrolo[3,4-c]phenoxazine-1,3-dione] | –
4 | 250 °C | Cn1c(=O)c2c3cc(OCCO)ccc3c3c(oc4cccnc4n3C(=O)Oc3ccccc3)c2c1=O [Example 8, 8-(Phenoxycarbonyl)-5-(2-hydroxyethoxy)-2-methyl-2,3-dihydrobenzo[e]pyrido[2′,3′:5,6][1,4]oxazino[3,2-g]isoindole-1,3-dione] | –

Row | SMILES | melting point | also measured
5 | CN(C)CCn1c(=O)c2c3cc(O)ccc3c3c(oc4ccccc4n3C(=O)OC(C)(C)C)c2c1=O [Example 1, 8-(tert-Butoxycarbonyl)-2-[2-(dimethylamino)ethyl]-5-hydroxy-2,3-dihydrobenzo[a]pyrrolo[3,4-c]phenoxazine-1,3-dione] | 190 °C (dec.) | –
6 | CN(C)CCn1c(=O)c2c3cc(OCCO)ccc3c3c(oc4ccccc4n3C(=O)OC(C)(C)C)c2c1=O [Example 3, 8-(tert-Butoxycarbonyl)-2-[2-(dimethylamino)ethyl]-5-(2-hydroxy-ethoxy)-2,3-dihydrobenzo[a]pyrrolo [3,4-c]phenoxazine-1,3-dione] | > 80 °C (dec.) | –
